{"source": "patent US20240390359A1", "about": "“METHODS FOR THE TREATMENT AND PREVENTION OF NON-VIRAL TICK-BORNE DISEASES AND SYMPTOMS THEREOF” (priority 2023, published 2024)", "origin": "cited, not measured here", "key": {"[1]": {"test_system": "Treponema palludum", "details": "50 or 100 microM for two hours in a 3% oxygen atmosphere; cited from earlier work"}, "[2]": {"test_system": "Borrelia burgdoferi B31 5A18NP1 strain", "details": "4 h; cited from earlier work"}, "[3]": {"test_system": "Babesia parasites", "details": "100 microM for 2h, in vitro; cited from earlier work"}, "[4]": {"test_system": "various serovars of Leptospira", "details": "exposure for as little as 30 min; cited from earlier work"}, "[5]": {"test_system": "Trypanosome brucei blood stage forms", "details": "exposure for 90 minutes; cited from earlier work"}, "[6]": {"test_system": "P. falciparum gametocytes", "details": "single dose combined with dihydroartemisinin/piperaquine; cited from earlier work"}, "[7]": {"test_system": "Pneumocystis", "details": "mice; cited from earlier work"}, "[8]": {"test_system": "Babesia", "details": "mice; cited from earlier work"}, "[9]": {"test_system": "P. falciparum", "details": "250 mg/day; cited from earlier work"}, "[10]": {"test_system": "P. falciparum", "details": "250 mg/day; cited from earlier work", "remark": "listed apart in the source"}, "[11]": {"test_system": "Babesia microti", "details": "Mongolian jirds; primaquine given daily; cited from earlier work"}, "[12]": {"test_system": "Plasmodium vivax", "details": "monotherapy 400 mg/day for three days, cited from earlier work"}, "[13]": {"test_system": "Plasmodium falciparum", "details": "600 mg loading dose followed by 200 mg; challenge three days after last dose; all control subjects developed parasitemia; cited from earlier work"}, "[14]": {"test_system": "extracellular blood stage forms of Trypanosoma brucei", "details": "cited from earlier work"}, "[15]": {"details": "cited from earlier work"}, "[16]": {"details": "in vivo; cited from earlier work"}, "[17]": {"details": "cited from earlier work", "remark": "listed apart in the source"}, "[18]": {"test_system": "blood stages of P. falciparum", "details": "in vivo; cited from earlier work"}, "[19]": {"test_system": "free-living gram-negative and gram-positive bacteria", "details": "cited from earlier work"}, "[20]": {"details": "600 mg over three days then 200 mg weekly for up to one year; cited from earlier work"}, "[21]": {"test_system": "B. rodhaini", "details": "single dose of 20 mg/kg; immunocompromised SCID mice; cited from earlier work"}, "[22]": {"test_system": "B. microti", "details": "one patient, prior rituximab; tafenoquine as monotherapy for six weeks at approved malaria prevention dose; cited from earlier work"}, "[23]": {"test_system": "intracellular amastigote forms of Leishmania major", "details": "cited from earlier work"}, "[24]": {"test_system": "B. rodhaini", "details": "cited from earlier work"}, "[25]": {"test_system": "B. gibsoni", "details": "splenectomized dogs, cited from earlier work"}}, "data": [{"smiles": "OO", "note": "[hydrogen peroxide]", "values": [{"measurement": "growth", "setting": "[1]", "result": "significantly inhibited"}, {"measurement": "lowest concentration that inhibited growth", "setting": "[2]", "result": 62.5, "unit": "µM"}, {"measurement": "killing of Babesia parasites", "setting": "[3]", "result": "kills Babesia parasites in vitro"}, {"measurement": "exogenous hydrogen peroxide concentrations that killed", "setting": "[4]", "result": "< 180", "unit": "µM"}, {"measurement": "hydrogen peroxide concentration that killed blood stage forms", "setting": "[5]", "result": "approximately 140 microM"}]}, {"smiles": "COc1cc(NC(C)CCCN)c2ncccc2c1", "note": "(centres unmarked) [primaquine]", "values": [{"measurement": "time until gametocyte infectivity statistically lower than reference values", "setting": "[6]", "result": "two days post-dosing"}, {"measurement": "cure of Pneumocystis infections", "setting": "[7]", "result": "must be combined with clindamycin"}, {"measurement": "single dose that cleared Babesia parasitemia", "setting": "[8]", "result": 100, "unit": "mg/kg"}]}, {"smiles": "CC[C@H]1OC(=O)[C@H](C)[C@@H](O[C@H]2C[C@@](C)(OC)[C@@H](O)[C@H](C)O2)[C@H](C)[C@@H](O[C@@H]2O[C@H](C)C[C@H](N(C)C)[C@H]2O)[C@](C)(O)C[C@@H](C)CN(C)[C@H](C)[C@@H](O)[C@]1(C)O", "note": "[Azithromycin]", "values": [{"measurement": "Protective Efficacy (%) Relative to Placebo, PF/Non-immune or Malaria-naïve", "setting": "[9]", "result": "72% (Taylor)"}, {"measurement": "Protective Efficacy (%) Relative to Placebo, Pf/Semi-Immune", "setting": "[10]", "result": "83% (Anderson)"}]}, {"smiles": "COc1cc(NC(C)CCCN)c2nccc(C)c2c1", "note": "(centres unmarked) [4-methyl substituted primaquine]", "values": [{"measurement": "efficacy against Babesia microti", "setting": "[11]", "result": "more efficacious than primaquine"}]}, {"smiles": "COc1cc(C)c2c(Oc3cccc(C(F)(F)F)c3)c(OC)cc(NC(C)CCCN)c2n1", "note": "(centres unmarked) [tafenoquine, N (4)-[2,6-Dimethoxy-4-methyl-5-[3-(trifluoromethyl)phenoxy]quinolin-8-yl] pentane-1,4-diamine]", "values": [{"measurement": "day by which all patients cleared blood stage parasites", "setting": "[12]", "result": "≤ 8", "unit": "days"}, {"measurement": "relapses during the follow up period", "setting": "[12]; patients with data available", "result": "no relapses"}, {"measurement": "development of blood stage parasitemia after challenge", "setting": "[13]", "result": "none of the tafenoquine subjects did"}, {"measurement": "potency of killing", "setting": "[14]", "result": "< 4", "unit": "µM"}, {"measurement": "doses that may not be well tolerated", "setting": "[15]; G6PD deficient subjects", "result": "≥ 300", "unit": "mg"}, {"measurement": "doses that may be well tolerated", "setting": "[15]; G6PD normal adult subjects", "result": "up to 400 mg"}, {"measurement": "doses often not well tolerated", "setting": "[15]; adult subjects regardless of G6PD status", "result": "above 400 mg"}, {"measurement": "half-life", "setting": "[16]", "result": 14, "unit": "days"}, {"measurement": "effect on QTC prolongation associated with chloroquine", "setting": "[17]; coadministered with chloroquine", "result": "did not increase the QTC prolongation"}, {"measurement": "effect on QTC interval", "setting": "[17]; doses of up to 1200 mg over three days", "result": "not found to increase the upper limit of 90% confidence interval of the QTC interval"}, {"measurement": "activity against the blood stages of P. falciparum", "setting": "[18]", "result": "quite effective"}, {"measurement": "activity against gram-negative versus gram-positive bacteria", "setting": "[19]", "result": "much less active against free-living gram-negative bacteria than free-living gram-positive bacteria"}, {"measurement": "overall rate of adverse events relative to placebo", "setting": "[20]", "result": "without increasing the overall rate of adverse events"}, {"measurement": "specific adverse events with increased risk", "setting": "[20]", "result": "gastrointestinal effects [mild to moderate] and cornea verticillata"}, {"measurement": "death", "setting": "[21]", "result": "delayed not prevent"}, {"measurement": "clinical outcome of babesiosis treatment", "setting": "[22]", "result": "the patient was cured"}, {"measurement": "potency of killing", "setting": "[23]", "result": "< 4", "unit": "µM"}, {"measurement": "formation of vacuoles in B. rodhaini blood stages", "setting": "[24]; single dose of 20 mg/kg in mice", "result": "induces the formation of large vacuoles"}, {"measurement": "parasitemia", "setting": "[24]; single dose of 20 mg/kg, Balb/c mice", "result": "cleared parasitemia"}, {"measurement": "survival", "setting": "[24]; single dose of 20 mg/kg, Balb/c mice, infection uniformly lethal in untreated animals", "result": 100, "unit": "%"}, {"measurement": "antioxidant enzymes in B. rodhaini", "setting": "[24]; single dose treatment in mice", "result": "upregulated"}, {"measurement": "parasitemia", "setting": "[25]; 100 mg tablet (9-11.5 mg/kg) on Days 12, 19 and 48", "result": "sufficient to clear and cure"}, {"measurement": "symptoms of infections such as anorexia, elevated respiration and pulse", "setting": "[25]", "result": "alleviated"}, {"measurement": "single dose that cleared Babesia parasitemia", "setting": "[8]", "result": 20, "unit": "mg/kg"}]}]}
